Reference: patent publication US8143243B2, “Compounds for the treatment of hepatitis C” (Bristol-Myers Squibb Company, priority 2007, dated 2012)
Like-named read-outs stand apart in the source and are kept apart here.

Assays:
HCV replicon cells = experiment: HCV replicon FRET / luciferase assay; format: cell-based
Excerpt: FRET Assay Preparation. To perform the HCV FRET screening assay, 96-well cell culture plates were used. The FRET peptide (Anaspec, Inc.) (Taliani et al., Anal. Biochem. 1996, 240, 60-67) contains a fluorescence donor, EDANS, near one end of the peptide and an acceptor, DABCYL, near the other end. The fluorescence of the peptide is quenched by […] resonance energy transfer (RET) between the donor and the acceptor, but as the NS3 protease cleaves the peptide the products are released from RET quenching and the fluorescence of the donor becomes apparent. The assay reagent was made as follows: 5× cell Luciferase cell culture lysis reagent from Promega (#E153A) diluted to 1× with dH2O, NaCl added to 150 mM final, the FRET peptide diluted to 20 μM final from a 2 mM stock.
To prepare plates, HCV replicon cells, with or without a Renilla luciferase reporter gene, were trypsinized and placed into each well of a 96-well plate with titrated test compounds added in columns 3 through 12; columns 1 and 2 contained a control compound (HCV protease inhibitor), and the bottom row contained cells without compound. The plates were then placed in a CO2 incubator at 37° C.
Assays. Subsequent to addition of the test compounds described above (FRET Assay Preparation), at various times the plate was removed and Alamar blue solution (Trek Diagnostics, #00-100) was added per well as a measure of cellular toxicity. After reading in a Cytoflour 4000 instrument (PE Biosystems), plates were rinsed with PBS and then used for FRET assay by the addition of 30 ul of the FRET peptide assay reagent described above (FRET Assay Preparation) per well. The plate was then placed into the Cytoflour 4000 instrument which had been set to 340 excite/490 emission, automatic mode for 20 cycles and the plate read in a kinetic mode. Typically, the signal to noise using an endpoint analysis after the reads was at least three-fold. Alternatively, after Alamar blue reading, plates were rinsed with PBS, 50 ul of DMEM (high glucose) without phenol red was added and plates were then used for luciferase assay using the Promega Dual-Glo Luciferase Assay System.
Compound analysis was determined by quantification of the relative HCV replicon inhibition and the relative cytotoxicity values. To calculate cytoxicity values, the average Alamar Blue fluorescence signals from the control wells were set as 100% non-toxic. The individual signals in each of the compound test wells were then divided by the average control signal and multiplied by 100% to determine […]. To calculate the HCV replicon inhibition values, an average background value was obtained from the two wells containing the highest amount of HCV protease inhibitor at the end of the assay period. These numbers were similar to those obtained from naïve Huh-7 cells.
The background numbers were then subtracted from the average signal obtained from the control wells and this number was used as 100% activity. The individual signals in each of the compound test wells were then divided by the averaged control values after background subtraction and multiplied by 100% to determine percent activity. EC50 values for a protease inhibitor titration were calculated as the concentration which caused a 50% reduction in FRET or luciferase activity. The two numbers generated for the compound plate, percent cytoxicity and percent activity were used to determine compounds of interest for further analysis.

HCV NS5B = target: T1, HCV NS5B (Hepatitis C virus genotype 1b, UniProt Q9WMX2); experiment: HCV NS5B RdRp enzyme assay (standard / modified); format: biochemical
T1 construct: The protein was expressed with an 18 amino acid C-terminal truncation to enhance the solubility; made in house; host or cells: E. coli BL21 (DE3)
T1 sequence (Q9WMX2 2420-2992): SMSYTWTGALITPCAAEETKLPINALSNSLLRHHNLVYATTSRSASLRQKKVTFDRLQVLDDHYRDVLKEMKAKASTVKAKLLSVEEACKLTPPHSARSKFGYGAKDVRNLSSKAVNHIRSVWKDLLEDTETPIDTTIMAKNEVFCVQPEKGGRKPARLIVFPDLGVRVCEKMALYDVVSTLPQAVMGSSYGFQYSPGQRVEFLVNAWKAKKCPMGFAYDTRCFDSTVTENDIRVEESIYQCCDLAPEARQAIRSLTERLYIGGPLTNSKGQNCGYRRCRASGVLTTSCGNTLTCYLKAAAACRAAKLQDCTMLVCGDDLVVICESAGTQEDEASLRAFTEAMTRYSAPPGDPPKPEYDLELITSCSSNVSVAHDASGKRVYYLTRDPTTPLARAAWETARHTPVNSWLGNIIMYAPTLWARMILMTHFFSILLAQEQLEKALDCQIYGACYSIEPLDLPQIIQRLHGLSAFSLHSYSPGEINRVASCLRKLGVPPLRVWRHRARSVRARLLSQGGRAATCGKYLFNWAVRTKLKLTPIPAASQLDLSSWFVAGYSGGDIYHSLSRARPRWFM
Outline: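 SPA detection of 3H-UTP (0.29 μM) incorporation by C-terminally truncated (18 aa) genotype 1b NS5B from E. coli, on polyA/biotin-oligo-dT12 at 30° C, pH 7.5 Hepes, 2% DMSO. Modified format: 14 nM enzyme, 0.2 nM template, 20 nM primer prebound to beads, 4 h; standard: 28 nM, 6 nM, 180 nM free primer, 60 min. Seven-point IC50 fit.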

[1] = Hepatitis C virus, HCV replicon cells, FRET or luciferase readout, read-out: EC50
[2] = HCV RdRp genotype 1b enzyme, read-out: IC50

**Q.** For `COc1ccc2c(c1)C=C(c1sccc1C(=O)O)Cn1c-2c(C2CCCCC2)c2ccc(C(=O)NS(=O)(=O)C(C)C)cc21`, which EC50 (HCV replicon cells; [1]) is on record?
**A.** > 0.04 µM

**Q.** And the IC50 (HCV NS5B; [2])?
**A.** 0.001 to 0.5 µM

**Q.** `COc1ccc2c(c1)C=C(c1c(C(=O)N3C4COCC3COC4)cnn1C)Cn1c-2c(C2CCCCC2)c2ccc(C(=O)NS(=O)(=O)C3CCCC3)cc21` was tested. Which EC50 (HCV replicon cells; Hepatitis C virus) did it give?
**A.** 0.001 to 0.5 µM

**Q.** What about the IC50 (HCV NS5B) of the same molecule?
**A.** 0.001 to 0.5 µM

**Q.** For `COc1ccc2c(c1)C=C(c1c(C(=O)N3C4CCC3CN(C)C4)cnn1C)Cn1c-2c(C2CCCCC2)c2ccc(C(=O)O)cc21`, which EC50 (HCV replicon cells; Hepatitis C virus) is on record?
**A.** 0.001 to 0.5 µM

**Q.** And the IC50 (HCV NS5B)?
**A.** > 0.5 µM

**Q.** Which results are given for `CCOC(=O)c1ccoc1C1=Cc2cc(OC)ccc2-c2c(C3CCCCC3)c3ccc(C(=O)NS(=O)(=O)C(C)C)cc3n2C1`?
**A.** EC50 (HCV replicon cells; [1]): > 0.5 µM; IC50 (HCV NS5B; [2]): 0.001 to 0.5 µM

**Q.** For `CCn1nc(C)c(C(=O)N2C[C@@H]3C[C@H]2CO3)c1C1=Cc2cc(OC)ccc2-c2c(C3CCCCC3)c3ccc(C(=O)NS(=O)(=O)C(C)C)cc3n2C1`, which EC50 (HCV replicon cells; [1]) is on record?
**A.** 0.001 to 0.5 µM

**Q.** What about the IC50 (HCV NS5B; [2]) of the same molecule?
**A.** 0.001 to 0.5 µM

**Q.** Which EC50 (HCV replicon cells; [1]) does the source give for `CCn1nc(C)c(C(=O)N2CC3CCC(C2)O3)c1C1=Cc2cc(OC)ccc2-c2c(C3CCCCC3)c3ccc(C(=O)NS(=O)(=O)C(C)C)cc3n2C1` here?
**A.** 0.001 to 0.5 µM

**Q.** And the IC50 (HCV NS5B; [2])?
**A.** 0.001 to 0.5 µM

**Q.** Which results are given for `COc1ccc2c(c1)C=C(c1c(C(=O)N3CCOCC3)cnn1C)Cn1c-2c(C2CCCCC2)c2ccc(C(=O)NS(=O)(=O)N3CCOCC3)cc21`?
**A.** EC50 (HCV replicon cells; [1]): 0.001 to 0.5 µM; IC50 (HCV NS5B; [2]): < 0.02 µM

**Q.** Which EC50 (HCV replicon cells; HCV replicon cells, FRET or luciferase readout, read-out: EC50) does the source give for `CCn1nc(C)c(C(=O)N2C[C@@H](C)O[C@@H](C)C2)c1C1=Cc2cc(OC)ccc2-c2c(C3CCCCC3)c3ccc(C(=O)NS(=O)(=O)C(C)C)cc3n2C1` [drawing 627] here?
**A.** 0.001 to 0.5 µM

**Q.** And the IC50 (HCV NS5B; [2])?
**A.** 0.001 to 0.5 µM

**Q.** For `COc1ccc2c(c1)C=C(c1c(C(=O)N3CCCC4(CCNC4=O)C3)cnn1C)Cn1c-2c(C2CCCCC2)c2ccc(C(=O)NS(=O)(=O)N3CCOCC3)cc21` (centres unmarked), which EC50 (HCV replicon cells; [1]) is on record?
**A.** 0.001 to 0.5 µM

**Q.** What about the IC50 (HCV NS5B; [2]) of the same molecule?
**A.** 0.001 to 0.5 µM

**Q.** `CCOC(=O)c1cnn(C)c1C1=Cc2cc(OC)ccc2-c2c(C3CCCCC3)c3ccc(C(=O)O)cc3n2C1` was tested. Which EC50 (HCV replicon cells; [1]) did it give?
**A.** 0.001 to 0.5 µM

**Q.** What about the IC50 (HCV NS5B; [2]) of the same molecule?
**A.** 0.001 to 0.5 µM

**Q.** Which results are given for `COc1ccc2c(c1)C=C(c1c(C(=O)N3C[C@H]4CC[C@@H](C3)N4C)cnn1C(C)C)Cn1c-2c(C2CCCCC2)c2ccc(C(=O)NS(=O)(=O)CC(C)C)cc21`?
**A.** EC50 (HCV replicon cells; Hepatitis C virus): 0.001 to 0.5 µM; IC50 (HCV NS5B): 0.001 to 0.5 µM

**Q.** Which results are given for `COCCN(C(=O)c1cnn(C)c1C1=Cc2cc(OC)ccc2-c2c(C3CCCCC3)c3ccc(C(=O)NS(=O)(=O)C(C)C)cc3n2C1)C(C)C`?
**A.** EC50 (HCV replicon cells; [1]): 0.001 to 0.5 µM; IC50 (HCV NS5B; [2]): 0.001 to 0.5 µM

**Q.** With `COc1ccc2c(c1)C=C(c1c(C(=O)N3C[C@@H](C)N(C)[C@@H](C)C3)cnn1C(C)(C)C)Cn1c-2c(C2CCCCC2)c2ccc(C(=O)NS(=O)(=O)C(C)C)cc21` as the molecule, how does the EC50 (HCV replicon cells; [1]) read?
**A.** 0.001 to 0.5 µM

**Q.** What about the IC50 (HCV NS5B; [2]) of the same molecule?
**A.** 0.001 to 0.5 µM

**Q.** With `CCN(CC)C(=O)c1sccc1C1=Cc2cc(OC)ccc2-c2c(C3CCCCC3)c3ccc(C(=O)NS(=O)(=O)N(C)C)cc3n2C1` as the molecule, how does the EC50 (HCV replicon cells; [1]) read?
**A.** 0.001 to 0.5 µM

**Q.** And the IC50 (HCV NS5B; [2])?
**A.** 0.001 to 0.5 µM

**Q.** Which EC50 (HCV replicon cells; Hepatitis C virus) does the source give for `COc1ccc2c(c1)C=C(c1c(C(=O)N3C4CCC3CN(C)C4)cnn1C)Cn1c-2c(C2CCCCC2)c2ccc(C(=O)NS(=O)(=O)CC(C)C)cc21` here?
**A.** 0.001 to 0.5 µM

**Q.** What about the IC50 (HCV NS5B) of the same molecule?
**A.** 0.001 to 0.5 µM

**Q.** For `COc1ccc2c(c1)C=C(c1c(C(=O)N3C4C=C(C)CC3CC4)cnn1C(C)C)Cn1c-2c(C2CCCCC2)c2ccc(C(=O)NS(=O)(=O)C(C)C)cc21` (centres unmarked), which EC50 (HCV replicon cells; Hepatitis C virus) is on record?
**A.** 0.001 to 0.5 µM

**Q.** What about the IC50 (HCV NS5B) of the same molecule?
**A.** 0.001 to 0.5 µM

**Q.** Which EC50 (HCV replicon cells; [1]) does the source give for `COc1ccc2c(c1)C=C(c1c(C(=O)N3C[C@@H]4C[C@H]3CO4)c(C)nn1C(C)C)Cn1c-2c(C2CCCCC2)c2ccc(C(=O)NS(=O)(=O)C(C)C)cc21` here?
**A.** 0.001 to 0.5 µM

**Q.** And the IC50 (HCV NS5B; [2])?
**A.** 0.001 to 0.5 µM

**Q.** What does the source list for `COc1ccc2c(c1)C=C(c1c(C(=O)N3CCOCC3)cnn1C)Cn1c-2c(C2CCCCC2)c2ccc(C(=O)NS(=O)(=O)C(C)C)cc21`?
**A.** EC50 (HCV replicon cells; [1]): 0.001 to 0.5 µM; IC50 (HCV NS5B; [2]): 0.001 to 0.5 µM

**Q.** Which results are given for `COc1ccc2c(c1)C=C(c1c(C(=O)N(CCN(C(C)C)C(C)C)C(C)C)cnn1C)Cn1c-2c(C2CCCCC2)c2ccc(C(=O)NS(=O)(=O)C(C)C)cc21`?
**A.** EC50 (HCV replicon cells; [1]): 0.001 to 0.5 µM; IC50 (HCV NS5B; [2]): 0.001 to 0.5 µM
